Laboratory results reported in patent US20230036339A1, “BIOACTIVE IMPLANTS FOR DRUG DELIVERY” (The Queen's University of Belfast, priority 2019, published 2023).
Several values for one entry are separate records, joined by “and”; a condition that tells them apart may be missing. Equal values may be shown once. Marks after values point to notes of the source that are not given here. Values belong to the compound of their own block, whether it stands above or below them.

Tests used:
[1] = Thermogravimetric analysis (TGA), thermal stability; type: physicochemical; conditions: 10° C. min-1, reported at 5% weight loss
Protocol: TGA was utilised to determine thermal stability. Initially the starting materials (LIDO, MA, SA and GMS) were analysed to deduce the degradation temperature. The excipients were exposed to a heating ramp from room temperature (circa 20° C.) to 500° C., at 10° C. min-1.
LIDO and the relevant lipids were weighed and heated at 80° C. until molten. The samples were given 24 hours to cool/solidify before they were ground using a mortar and pestle for 2 min. The resultant systems were heated at 10° C. min-1 from room temperature to 350° C. All TGA experiments were conducted in triplicates, using Perkin-Elmer Aluminum Non-Hermetic DSC pans. Nitrogen (60 mL min-1) was used as the purge gas. The degradation temperature was reported at 5% weight loss. Analysis was performed using TA Universal analysis software.
Consequently, TGA is an essential technique used to inform the suitability of these materials and processing conditions of HME. The thermal degradation temperature was reported at 5% weight loss.

[2] = cited from earlier work
[3] = Assessment of drug loading capacity of EVA
[4] = In vivo sheep study, pharmacokinetics of lidocaine and myristic acid; conditions: FIG. 25
[5] = Lidocaine and myristic acid remaining post-implantation; type: in vivo; conditions: individual sheep
Protocol: The components of the outer coating were dissolved by sonication in dicholoromethane and the volume was then made up to 50 ml. Two ml of this solution was dried for 1 h at 50° C. and reconstituted in 100 ml methanol. The methanolic solutions were appropriately diluted in the mobile phase for assay by LCMS-MS.

Mean Degradation Temperature ± SD ([1]; listed as GMS): 197.34 °C and 197.34 ± 8.23 °C
Compound: CCCCCCCCCCCCCCCCCC(=O)OCC(O)CO (centres unmarked) [Glycerol Monostearate]
LogP [2]: 5.97

Compound: CCN(CC)CC(=O)Nc1c(C)cccc1C [Lidocaine, 2-(diethyl-amino)-N-(2,6-dimethylpheny)-acetamide, reference compound]
Mean Degradation Temperature ± SD ([1]; listed as LIDO): 164.40 ± 1.30 °C
Mean Degradation Temperature ± SD ([1]; listed as lidocaine): 164.40 °C
Lidocaine concentration at which it crystalises out ([3]; in EVA 33%): > 10%
Lidocaine concentration over which it crystallises out ([3]; solvent cast EVA film or EVA polymer implant): 9-10 % w/w

Myristic acid % Remaining ([5]; in co-extrudate after 7 days implantation, listed as Myristic acid): <4.00* %
Myristic acid % Remaining ([5]; in co-extrudate after 7 days implantation, listed as myristic acid): too low to quantify
Mean Degradation Temperature ± SD ([1]; listed as MA): 177.55 °C and 177.55 ± 0.82 °C
Compound: CCCCCCCCCCCCCC(=O)O [Myristic Acid]
Concentration in peritoneal fluid compared to plasma [4]: higher concentrations again observed in peritoneal fluid
Myristic acid % Remaining ([5]; in co-extrudate after 3 days implantation, mean ± SD n=3): 10.04 ± 1.82% and 16.91 ± 6.77% and 11.21 ± 0.98%
LogP [2]: 5.37

Mean Degradation Temperature ± SD ([1]; listed as SA): 201.75 °C and 201.75 ± 4.12 °C
Compound: CCCCCCCCCCCCCCCCCC(=O)O [Stearic Acid]
LogP [2]: 7.15
